Source: patent publication US20050240034A1, “Artemisinin-based peroxide compounds as broad spectrum anti-infective agents” (priority 2002, published 2005)
pIC50: −log10 of the molar value. Where two headings read alike, the source gives them in different places.

Tests used:
[1] = test system: Leishmania donovani promastigotes expressing firefly luciferase; assay: antileishmanial luciferase assay on transgenic promastigotes; format: cell-based
Description: Antileishmanial activity of the compounds was tested on a transgenic cell line of Leishmania donovani promastigotes expressing firefly luciferase.^29a In a 96 well microplate assay, compounds with appropriate dilution were added to the leishmania promastigotes culture (2×10^6 cell/mL). The plates were incubated at 26° C. for 72 hours and growth of leishmania promastigotes was determined by luciferase assay with Steady Glo® reagent (Promega, USA). Pentamidine and Amphotericin B were used as standard antileishmanial agents. The analogues were simultaneously tested for cytotoxicity on VERO cells (monkey kidney fibroblast) by Neutral Red assay.^29b IC50 values for the compounds were computed from the growth inhibition curve.

[2] = test system: P. falciparum W2 (IndoChina); assay: antimalarial parasite LDH (pLDH) assay, W2; format: cell-based, Plasmodium falciparum; conditions: pLDH assay, Table 5; read-out: P. falciparum (W2 Clone) IC50
Description: (§1) The Thad Cochran National Center for Natural Products Research (University of Mississippi) in vitro antimalarial screen was conducted using an enzyme assay for detection of P. falciparum (see procedure below). This assay is based on the observation that lactate dehydrogenase (LDH) of P. falciparum is distinguishable from host LDH activity. P. falciparum LDH rapidly uses 3-acetyl pyridine nicotinamide adenine dinucleotide (APAD) as a coenzyme in the biotransformation of […].^38 The same process is carried out in human red blood cells at a very slow rate.
(§2) The “Antimalarial parasite LDH assay” is currently being conducted according the following procedure: prepare a suspension of RBC with a 2% parasitemia and 2% hematocrit in malaria complete medium. Dispense 200 μl aliquots of this suspension into each well of a 96 well microtiter plate. Add 10 μl volumes of the drugs to be tested in duplicate to the appropriate wells. Place the plates into humidified chamber and flush the cultures with a gas mixture consisting of 90% N2, 5% O2, and 5% CO2. Transfer the chamber containing the plates to an incubator, and incubate for 48 hours at 37° C. After 48 hours add 100 μl aliquots of the Malstat™ reagent to each well of a new 96-well microtiter plate Resuspend the cultures from the assay plate by mixing each well up and down several times. Remove 20 μl from each well of the resuspend culture and add to the plate containing the Malstat™ reagent. Incubate the plates at room temperature for 30 minutes. After 30 minutes, add to each well 20 μl of the 1:1 mixture of the NBT/PES solution (2 mg/ml and 0.1 mg/ml, respectively). Incubate the plates in the dark for 1 hour. Add 100 μl of 5% acetic acid solution to stop the reaction. The plate is then read at an endpoint of approximately 650 nm. The dose response curves are generated using Microsoft Excel.
(§3) Antimalarial activity of the analogues was determined in vitro on chloroquine sensitive (D)6, Sierra Leone) and resistant (W2, IndoChina) strains of Plasmodium falciparum. The 96 well microplate assay is based on evaluation of the effect of the compounds on the growth of asynchronous cultures of P. falciparum, determined by the assay of parasite lactate dehydrogenase (pLDH) activity.^28 The appropriate dilutions of the compounds were prepared in DMSO or RPMI-1640 medium and added to the cultures of P. falciparum (2% hematocrit, 2% parasitemia) set up in clear flat bottomed 96 well plates. The plates were placed into the humidified chamber and flushed with a gas mixture of 90% N2, 5% CO2 & 5% O2. The cultures were incubated at 37° C. for 48 hours. Growth of the parasite in each well was determined by pLDH assay using Malstat® reagent. The medium and RBC controls were also set-up in each plate.

[3] = test system: P. falciparum D6 (Sierra Leone); assay: antimalarial parasite LDH (pLDH) assay, D6; format: cell-based, Plasmodium falciparum; conditions: pLDH assay, Table 5; read-out: P. falciparum (D6 Clone) IC50
Description: as §1, §2
as §3, with “plate. The standard antimalarial agents, chloroquine and artemisinin, were used as the positive controls while DMSO was tested as the negative control.” for “plate.”

P. yoelli ssp. NS = assay: in vivo 4-day antimalarial test in mice, P. yoelli ssp. NS
Description: (§4) The parasitemia is determined on the day following the last treatment—day 4 to determine qualitatively the presence and degree of activity at the screening dose.

P. berghei N = assay: in vivo Peter's 4-day antimalarial test in mice, P. berghei N
Description: as §4

[4] = Table 1 (artemisinin analogues), NA = not active up to 125 μg/ml, read-out: Antileishmanial activity IC50
[5] = Table 3 (continues Table 1), read-out: Antileishmanial activity IC50
[6] = Table 4, NA = not active up to 125 μg/ml, read-out: IC50
[7] = mice, oral, 4-day test, unit not given
[8] = mice, subcutaneous, 4-day test, unit not given

CC1CCC2C(CCCc3ccccc3)C(=O)OC3OC4(C)CCC1C32OO4 (stereo not shown) [Compound 27]
pIC50 [1, 4]: 4.34 | pIC50 [2]: 8.47 | pIC50 [3]: 7.98

CC1CCC2C(C)(C)C(=O)OC3OC4(C)CCC1C32OO4 (stereo not shown) [Compound 62]
pIC50 [1, 4]: 3.99

CC1CCC2C(CCCc3ccc(Cl)cc3)COC3OC4(C)CCC1C32OO4 (stereo not shown) [Compound 95]
pIC50 [1, 5]: 5.31

CC1CCC2C(CCCc3cccc(F)c3)C(=O)OC3OC4(C)CCC1C32OO4 (stereo not shown) [Compound 71]
pIC50 [1, 4]: 5.43

N=C(N)c1ccc(OCCCCCOc2ccc(C(=N)N)cc2)cc1 [Pentamidine, reference compound]
pIC50 ([1]; Leishmania donovani, read-out: Antileishmanial activity IC50): 5.87

CC1CCC2C(CCCc3ccc(O)cc3)C(=O)OC3OC4(C)CCC1C32OO4 (single isomer, unassigned; (+)) [Compound 33]
pIC50 [1, 4]: 4.35 | pIC50 [2]: 8.33 | pIC50 [3]: 8.10

CC1CCC2CC(=O)N(CC(=O)OC(C)(C)C)C3OC4(C)CCC1C23OO4 (stereo not shown) [Compound 107]
pIC50 [1, 6]: 4.56

CC1CCC2C(CCCc3ccccc3)C(=O)OC3OC4(C)CCC1C32OO4 (stereo not shown) [Compound 26]
pIC50 [1, 4]: 4.94 | pIC50 [2]: 8.89 | pIC50 [3]: 8.33

C[C@@H]1CC[C@H]2[C@@H](C)C(=O)O[C@@H]3O[C@@]4(C)CC[C@@H]1[C@]32OO4 [Artemisinin, artemisinin]
pIC50 [1, 4]: 3.91 | pIC50 [3]: 7.77

CC1CCC2C(CCCc3cc(C(F)(F)F)cc(C(F)(F)F)c3)COC3OC4(C)CCC1C32OO4 (stereo not shown) [Compound 101]
pIC50 [1, 5]: 6.52

CC1CCC2C(CCCc3cc(F)cc(F)c3)C(=O)OC3OC4(C)CCC1C32OO4 (stereo not shown) [Compound 74]
pIC50 [1, 4]: 4.30

CCCC1C(=O)OC2OC3(C)CCC4C(C)CCC1C24OO3 (stereo not shown) [Compound 63]
pIC50 [1, 4]: 4.77

CC1CCC2C(CCCCc3ccccc3)C(=O)OC3OC4(C)CCC1C32OO4 (stereo not shown) [Compound 70]
pIC50 [1, 4]: 5.12

CC1CCC2CC(=O)OC3OC4(C)CCC1C23OO4 (stereo not shown) [Compound 60]
pIC50 [1, 4]: 3.62

CC1CCC2C(CCCc3ccc(Cl)c(Cl)c3)COC3OC4(C)CCC1C32OO4 (stereo not shown) [Compound 97]
pIC50 [1, 5]: 5.64

(+)-Octahydro-3,6α-dimethyl-3,12-epoxy-9β-(3′-(trifluoromethyl)propyl)-12H-pyrano[4,3j]-1,2-benzodioxepin-10(3H)-one [Compound 28]
pIC50 [1, 4]: 5.85 | pIC50 [2]: 7.29 | pIC50 [3]: 7.36

CC1CCC2C(CCCc3ccc(C(F)(F)F)cc3)COC3OC4(C)CCC1C32OO4 (stereo not shown) [Compound 98]
pIC50 [1, 5]: 5.74

CC1CCC2C(CCCc3ccc(Cl)cc3)C(=O)OC3OC4(C)CCC1C32OO4 (stereo not shown) [Compound 72]
pIC50 [1, 4]: 4.92

COc1ccc(CCCC2COC3OC4(C)CCC5C(C)CCC2C35OO4)cc1 (stereo not shown) [Compound 99]
pIC50 [1, 5]: 4.76

C[C@@H]1[C@H](O)[C@@H](C)/C=C/C=C/C=C/C=C/C=C/C=C/C=C/[C@H](O[C@@H]2O[C@H](C)[C@@H](O)[C@H](N)[C@@H]2O)C[C@@H]2O[C@](O)(C[C@@H](O)C[C@@H](O)[C@H](O)CC[C@@H](O)C[C@@H](O)CC(=O)O[C@H]1C)C[C@H](O)[C@H]2C(=O)O [Amphotericin B, reference compound]
pIC50 [1, 5]: 8.00

C[C@H]1[C@H](OC(=O)CCC(=O)[O-])O[C@@H]2O[C@@]3(C)CC[C@H]4[C@H](C)CC[C@@H]1[C@@]24OO3.[Na+] [Sodium artesunate, sodium artesunate, reference compound]
% Suppression (P. yoelli ssp. NS; strain NS, route PO): 56.5% | ED50 (P. yoelli ssp. NS; strain NS, route PO): <10 mg/kg × 4 | ED90 (P. yoelli ssp. NS; strain NS, route PO): >10 mg/kg × 4 | P. yoelli ssp. NS (S.C.) ED50 (P. yoelli ssp. NS; subcutaneous, unit inferred): 5.3 mg/kg | P. yoelli ssp. NS (S.C.) ED90 (P. yoelli ssp. NS; subcutaneous, unit inferred): 23.3 mg/kg | P. berghei N P.O. ED50 (P. berghei N; [7]): 2.4 | P. berghei N P.O. ED90 (P. berghei N; [7]): 13.0 | P. berghei N S.C. ED50 (P. berghei N; [8]): 1.5 | P. berghei N S.C. ED90 (P. berghei N; [8]): 6.3 | % Suppression (P. berghei N; strain N, route PO): 77.2% | ED50 (P. berghei N; strain N, route PO): <10 mg/kg × 4 | ED90 (P. berghei N; strain N, route PO): >10 mg/kg × 4

C=CCC1C(=O)OC2OC3(C)CCC4C(C)CCC1C24OO3 (stereo not shown) [Compound 64]
pIC50 [1, 4]: 4.75

CCCCC1C(=O)OC2OC3(C)CCC4C(C)CCC1C24OO3 (stereo not shown) [Compound 65]
pIC50 [1, 4]: 4.91

C[C@@H]1CC[C@@H]([C@@H](C)CO)[C@@]23C=C[C@@](C)(CC[C@@H]12)OO3 [Compound 112]
pIC50 ([1]; Leishmania donovani): 3.88

(+)-Octahydro3,6α-dimethyl-3,12-epoxy-9β-(3′-(3,5-difluorophenyl)propyl)-12H-pyrano[4,3j)-1,2-benzodioxepin-10(3H)-one [Compound 34]
pIC50 [1, 4]: 4.84 | pIC50 [2]: 7.80 | pIC50 [3]: 7.73

CC1CCC2C(CCCc3cccc(Cl)c3)COC3OC4(C)CCC1C32OO4 (stereo not shown) [Compound 96]
pIC50 [1, 5]: 5.43

CCCCN1C(=O)CC2CCC(C)C3CCC4(C)OOC23C1O4 (stereo not shown) [Compound 105]
pIC50 [1, 6]: 4.35

CC1CCC2C(CCCc3ccc(N(C)C)cc3)COC3OC4(C)CCC1C32OO4 (stereo not shown) [Compound 43a]
pIC50 [1, 5]: 4.44 | pIC50 [2]: 7.84 | pIC50 [3]: 7.78

CC1CCC2CC(=O)N(Cc3ccccc3)C3OC4(C)CCC1C23OO4 (stereo not shown) [Compound 108]
pIC50 [1, 6]: 4.25

CC1CCC2C(CCC#N)C(=O)OC3OC4(C)CCC1C32OO4 (stereo not shown) [Compound 52]
pIC50 [1, 4]: 4.41 | pIC50 [2]: 7.83 | pIC50 [3]: 7.83

CC1CCC2CC(=O)N(CCc3ccccc3)C3OC4(C)CCC1C23OO4 (stereo not shown) [Compound 110]
pIC50 [1, 6]: 4.49

COc1ccc(CCCC2C(=O)OC3OC4(C)CCC5C(C)CCC2C35OO4)cc1 (stereo not shown) [Compound 73]
pIC50 [1, 4]: 4.92

(+)-Octabydro-3,6α-dimethyl-3,12-epoxy-9β-(3′-(m-fluorophenyl)propyl)-12H-pyrano[4,3j]-1,2-benzodioxepin-10(3H)-one [Compound 30]
pIC50 [1, 4]: 4.27 | pIC50 [2]: 7.70 | pIC50 [3]: 7.52

CC1CCC2C(CCCc3cc(F)cc(F)c3)COC3OC4(C)CCC1C32OO4 (stereo not shown) [Compound 100]
pIC50 [1, 5]: 4.96

CC1CCC2CC(=O)N(Cc3ccc(Cl)cc3)C3OC4(C)CCC1C23OO4 (stereo not shown) [Compound 109]
pIC50 [1, 6]: 4.59

CC1CCC2C(C)COC3OC4(C)CCC1C32OO4 (stereo not shown) [Compound 94]
pIC50 [1, 5]: 4.33
